IC50 and EC50 data for 14 compounds are collected here from ChEMBL document CHEMBL1156007, “mu-Opioid/5-HT4 dual pharmacologically active agents-efforts towards an effective opioid analgesic with less GI and respiratory side effects (Part I)” (Bioorg Med Chem Lett, 2009).

Bounds are passed on as bounds.

In one assay the target is Mu-type opioid receptor (Homo sapiens, UniProt P35372). Description: Binding affinity to human mu opioid receptor.
In assay [1] the target is T1, 5-hydroxytryptamine receptor 3A (Homo sapiens, UniProt P46098).
T1 sequence (P46098 whole entry): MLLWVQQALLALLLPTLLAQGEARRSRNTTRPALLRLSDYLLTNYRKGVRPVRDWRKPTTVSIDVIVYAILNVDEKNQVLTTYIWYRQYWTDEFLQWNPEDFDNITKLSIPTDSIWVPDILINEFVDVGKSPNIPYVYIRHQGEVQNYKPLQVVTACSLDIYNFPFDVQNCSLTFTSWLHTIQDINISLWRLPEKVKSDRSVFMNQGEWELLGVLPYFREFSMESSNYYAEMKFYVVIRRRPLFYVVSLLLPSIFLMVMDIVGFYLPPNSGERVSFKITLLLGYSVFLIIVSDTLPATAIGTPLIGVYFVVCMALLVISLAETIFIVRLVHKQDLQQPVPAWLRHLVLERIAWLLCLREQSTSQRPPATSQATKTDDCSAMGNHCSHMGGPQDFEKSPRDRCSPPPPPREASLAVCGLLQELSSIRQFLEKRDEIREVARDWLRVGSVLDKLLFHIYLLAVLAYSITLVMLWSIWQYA
Put plainly: Displacement of [3H]granisetron from human recombinant 5-HT3 receptor expressed in HEK293 cells. It is filed as cell-based.

Assay [2] has as its target T2, 5-hydroxytryptamine receptor 4 (Homo sapiens, UniProt Q13639). Put plainly: Displacement of [3H]GR-113808 from human recombinant 5-HT4 receptor.
For assay [3], the target named is T2, 5-hydroxytryptamine receptor 4. Put plainly: Agonist activity at human recombinant 5-HT4 receptor. It is filed as functional.
Assay [4] deals with T1, 5-hydroxytryptamine receptor 3A. Description: Antagonist activity at human recombinant 5-HT3 receptor expressed in HEK293 cells. Format: functional, cell-based.

Sequence of Mu-type opioid receptor (P35372 whole entry): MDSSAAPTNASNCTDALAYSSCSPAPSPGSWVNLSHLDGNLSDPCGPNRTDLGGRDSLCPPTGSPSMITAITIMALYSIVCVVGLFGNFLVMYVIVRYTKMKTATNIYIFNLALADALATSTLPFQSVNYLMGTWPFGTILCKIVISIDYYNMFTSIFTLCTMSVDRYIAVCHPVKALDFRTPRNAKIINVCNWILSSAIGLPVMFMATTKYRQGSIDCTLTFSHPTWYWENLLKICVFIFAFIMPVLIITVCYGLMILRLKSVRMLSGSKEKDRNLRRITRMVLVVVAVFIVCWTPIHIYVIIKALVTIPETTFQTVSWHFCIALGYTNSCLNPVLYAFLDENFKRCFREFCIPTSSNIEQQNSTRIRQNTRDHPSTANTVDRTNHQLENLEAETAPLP
T2 sequence (Q13639 whole entry): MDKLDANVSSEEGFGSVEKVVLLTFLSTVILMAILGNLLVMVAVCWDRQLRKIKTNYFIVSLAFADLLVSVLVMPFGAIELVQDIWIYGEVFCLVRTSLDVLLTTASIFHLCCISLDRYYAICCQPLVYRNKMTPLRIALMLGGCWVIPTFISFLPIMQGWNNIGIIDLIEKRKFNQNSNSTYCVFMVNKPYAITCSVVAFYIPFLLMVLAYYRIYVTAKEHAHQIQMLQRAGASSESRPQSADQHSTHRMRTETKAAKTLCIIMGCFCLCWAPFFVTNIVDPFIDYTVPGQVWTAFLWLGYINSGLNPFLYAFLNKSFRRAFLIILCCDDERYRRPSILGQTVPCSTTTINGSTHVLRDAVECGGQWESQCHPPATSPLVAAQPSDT

One may read the IC50 as the concentration that gives 50% inhibition. Consider `COc1cc(N)c(Cl)cc1C(=O)N[C@@H]1CCN(C[C@@H]2CCCC[C@@]2(O)c2cccc(O)c2)C[C@@H]1OC`, for which the half-inhibitory concentration (IC50) on Mu-type opioid receptor was over 10000 nM; in assay [1] it was 1400 nM; in assay [2], over 10000 nM.
As to `COc1cc(N)c(Cl)cc1C(=O)NCCN(C)C[C@@H]1CCCC[C@@]1(O)c1cccc(O)c1`, the values for the concentration for half-maximal inhibition (IC50) (at Mu-type opioid receptor; in assay [1]; in assay [2]) were 5100 nM, 2500 nM and over 10000 nM, respectively.
For `COc1cccc([C@]2(O)CCCC[C@H]2CN(C)CCNC(=O)c2cc(Cl)c(N)cc2OC)c1`, the IC50 at Mu-type opioid receptor is over 10000 nM; in assay [1], 4900 nM; in assay [2], over 10000 nM.
With `COc1cccc([C@]2(O)CCCC[C@H]2CN2CC[C@H](NC(=O)c3cc(Cl)c(N)cc3OC)[C@H](OC)C2)c1`, the half-maximal inhibitory concentration (IC50) on Mu-type opioid receptor was over 10000 nM; in assay [1], 1700 nM; in assay [2] it was 4600 nM.
The term EC50 denotes the concentration needed to bring the measured effect to its halfway point. As for `COc1cc(N)c(Cl)cc1C(=O)N[C@H]1CCN(C[C@@H]2CCCC[C@@]2(O)c2cccc(O)c2)C[C@H]1OC`, the figures for the 50% inhibitory concentration (IC50) (at Mu-type opioid receptor; in assay [1]; in assay [2]) were 410 nM, 18 nM and 9900 nM, respectively. The EC50 in assay [3] turned out to be 90 nM.
Regarding `COc1cccc([C@@]2(O)CCCC[C@@H]2CN(C)CCNC(=O)c2cc(Cl)c(N)cc2OC)c1`, the IC50 at Mu-type opioid receptor came out at 4500 nM; in assay [1] it was 3500 nM; in assay [2], 5000 nM.
In the case of `COc1cc(N)c(Cl)cc1C(=O)NC1CCNCC1OC` (racemic) [NORCISAPRIDE], the EC50 in assay [4] came to 2300 nM; in assay [3], 290 nM. The IC50 in assay [1] was 1600 nM; in assay [2] it was 19 nM.
As for `COc1cccc([C@@]2(O)CCCC[C@@H]2CN2CC[C@@H](NC(=O)c3cc(Cl)c(N)cc3OC)[C@@H](OC)C2)c1`, the half-inhibitory concentration (IC50) at Mu-type opioid receptor was over 10000 nM; in assay [1] it was 2800 nM; in assay [2], over 10000 nM.
For the compound `COc1cccc([C@]2(O)CCCC[C@H]2CN2CC[C@@H](NC(=O)c3cc(Cl)c(N)cc3OC)[C@@H](OC)C2)c1`, the IC50 is over 10000 nM on Mu-type opioid receptor, 159 nM in assay [1] and 3900 nM in assay [2]. For the same compound, the results for the EC50 in assay [4] and in assay [3] were over 10000 nM and 120 nM, respectively.
For `COc1cc(N)c(Cl)cc1C(=O)NCCN(C)C[C@H]1CCCC[C@]1(O)c1cccc(O)c1`, the IC50 at Mu-type opioid receptor is 340 nM; in assay [1], 3100 nM; in assay [2], over 10000 nM.
`COc1cc(N)c(Cl)cc1C(=O)N[C@H]1CCN(C[C@H]2CCCC[C@]2(O)c2cccc(O)c2)C[C@H]1OC`: the IC50 was over 10000 nM on Mu-type opioid receptor, 390 nM in assay [1] and over 10000 nM in assay [2].
As to `COc1cccc([C@@]2(O)CCCC[C@@H]2CN2CC[C@H](NC(=O)c3cc(Cl)c(N)cc3OC)[C@H](OC)C2)c1`, the concentration for half-maximal inhibition (IC50) on Mu-type opioid receptor is over 10000 nM; in assay [1], 790 nM; in assay [2], 6100 nM.
For `COc1cc(N)c(Cl)cc1C(=O)NCCN(C)CC1CCCCC1(O)c1cccc(O)c1` (racemic), in that order: 190 nM, 2800 nM and over 10000 nM.
`COc1cc(N)c(Cl)cc1C(=O)N[C@@H]1CCN(C[C@H]2CCCC[C@]2(O)c2cccc(O)c2)C[C@@H]1OC`: the IC50 at Mu-type opioid receptor was over 10000 nM; in assay [1], 1600 nM; in assay [2] it was over 10000 nM.
